Usually IC50 stands for the concentration needed to halve the response being measured. One may read the Ki as the dissociation constant of the complex between target and ligand, obtained from inhibition or displacement.

Consider 26 molecules from ChEMBL document CHEMBL1909046, “DrugMatrix in vitro pharmacology data”.

A short description of data set [1]: DRUGMATRIX: Calcium Channel Type L, Phenylalkylamine radioligand binding (ligand: [3H] (-)-Desmethoxyverapamil (D-888)). In kind it is cell membranes, Rattus norvegicus, Wistar, Brain, Membrane. The note with it: Not Active = under 50% inhibition at 10 µM.
Data set [2] addresses Platelet-activating factor receptor (Homo sapiens, UniProt P25105). The format is tissue-based.
In data set [3] the target is T1, 5-hydroxytryptamine receptor 1A (Rattus norvegicus, UniProt P19327). Further: in other assays of this panel Not Active means under 50% inhibition at 10 µM.
T1 sequence (P19327 whole entry): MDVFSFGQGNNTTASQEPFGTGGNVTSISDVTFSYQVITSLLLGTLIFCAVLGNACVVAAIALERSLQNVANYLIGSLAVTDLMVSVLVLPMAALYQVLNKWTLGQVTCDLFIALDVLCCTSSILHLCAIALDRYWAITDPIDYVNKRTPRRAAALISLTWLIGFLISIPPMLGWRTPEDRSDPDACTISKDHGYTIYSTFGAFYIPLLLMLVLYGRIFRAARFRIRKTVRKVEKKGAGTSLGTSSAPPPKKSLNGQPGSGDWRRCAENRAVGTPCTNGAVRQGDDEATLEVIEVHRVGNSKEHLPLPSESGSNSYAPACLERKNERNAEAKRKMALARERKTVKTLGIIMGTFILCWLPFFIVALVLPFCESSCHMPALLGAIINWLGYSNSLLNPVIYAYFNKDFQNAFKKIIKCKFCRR
In kind it is cell membranes, CHO-K1, Membrane. Conditions: for Ki: read-out: Ki.

Data set [4] addresses T2, Androgen receptor (Rattus norvegicus, UniProt P15207).
T2 sequence (P15207 whole entry): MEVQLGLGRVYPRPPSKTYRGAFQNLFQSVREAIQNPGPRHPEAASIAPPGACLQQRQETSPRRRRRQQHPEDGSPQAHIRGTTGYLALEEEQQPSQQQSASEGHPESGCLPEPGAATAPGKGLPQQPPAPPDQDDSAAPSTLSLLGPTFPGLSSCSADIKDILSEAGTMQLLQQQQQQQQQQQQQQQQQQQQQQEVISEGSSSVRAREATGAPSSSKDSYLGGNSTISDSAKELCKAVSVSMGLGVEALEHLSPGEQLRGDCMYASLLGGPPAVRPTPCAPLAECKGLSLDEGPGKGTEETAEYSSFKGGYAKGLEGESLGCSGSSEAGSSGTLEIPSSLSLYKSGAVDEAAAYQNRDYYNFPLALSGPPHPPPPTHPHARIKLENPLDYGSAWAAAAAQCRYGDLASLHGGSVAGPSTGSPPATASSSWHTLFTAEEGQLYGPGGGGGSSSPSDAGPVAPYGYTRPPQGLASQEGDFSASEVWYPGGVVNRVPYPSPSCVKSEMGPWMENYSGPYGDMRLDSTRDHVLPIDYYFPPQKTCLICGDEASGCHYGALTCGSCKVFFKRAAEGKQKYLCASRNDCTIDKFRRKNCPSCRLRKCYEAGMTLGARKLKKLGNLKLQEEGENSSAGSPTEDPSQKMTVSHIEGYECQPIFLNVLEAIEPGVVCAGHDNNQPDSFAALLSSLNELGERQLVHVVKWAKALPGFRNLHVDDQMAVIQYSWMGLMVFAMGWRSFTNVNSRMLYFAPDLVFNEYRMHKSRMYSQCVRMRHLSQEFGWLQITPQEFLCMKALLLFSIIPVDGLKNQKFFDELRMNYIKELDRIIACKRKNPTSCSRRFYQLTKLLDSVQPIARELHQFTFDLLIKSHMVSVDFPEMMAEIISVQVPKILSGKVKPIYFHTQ

Data set [5] deals with Cytochrome P450 3A4 (Homo sapiens, UniProt P08684). Conditions: bti-tn-5b1-4.
Chain of Cytochrome P450 3A4 (P08684 whole entry): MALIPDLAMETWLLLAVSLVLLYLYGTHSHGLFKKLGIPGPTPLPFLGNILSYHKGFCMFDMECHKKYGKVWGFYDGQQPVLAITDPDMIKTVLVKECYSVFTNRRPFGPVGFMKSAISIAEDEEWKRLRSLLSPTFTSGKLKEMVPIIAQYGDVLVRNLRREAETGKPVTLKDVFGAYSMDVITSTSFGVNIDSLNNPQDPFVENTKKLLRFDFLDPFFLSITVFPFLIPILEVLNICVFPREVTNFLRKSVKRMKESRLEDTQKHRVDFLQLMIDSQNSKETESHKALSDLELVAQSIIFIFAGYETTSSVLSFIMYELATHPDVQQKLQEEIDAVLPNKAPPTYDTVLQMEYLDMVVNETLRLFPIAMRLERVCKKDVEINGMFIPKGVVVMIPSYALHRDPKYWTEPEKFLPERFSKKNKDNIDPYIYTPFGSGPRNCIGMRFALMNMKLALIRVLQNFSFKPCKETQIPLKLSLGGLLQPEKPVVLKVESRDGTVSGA

Chain of Platelet-activating factor receptor (P25105 whole entry): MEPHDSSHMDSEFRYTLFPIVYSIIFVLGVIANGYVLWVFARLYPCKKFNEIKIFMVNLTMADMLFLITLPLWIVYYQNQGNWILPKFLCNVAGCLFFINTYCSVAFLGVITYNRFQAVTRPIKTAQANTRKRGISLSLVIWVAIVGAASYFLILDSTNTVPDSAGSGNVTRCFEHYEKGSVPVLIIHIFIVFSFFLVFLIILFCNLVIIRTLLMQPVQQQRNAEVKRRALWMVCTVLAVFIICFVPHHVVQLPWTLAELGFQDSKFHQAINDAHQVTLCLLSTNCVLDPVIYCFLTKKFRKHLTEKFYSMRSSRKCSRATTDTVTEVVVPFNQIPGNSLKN

`Cc1c(C)c2c(c(C)c1O)CCC(C)(CN1CCN(c3cc(N4CCCC4)nc(N4CCCC4)n3)CC1)O2` (stereo unspecified): the IC50 entry in data set [1], in data set [2], in data set [3] (cho-k1) and in data set [4] was “Not Active” throughout. Besides, the Ki entry in data set [1] is “Not Active”.

In the case of `COc1ccc(CCN(C)CCCC(C#N)(c2ccc(OC)c(OC)c2)C(C)C)cc1OC` (stereo unspecified), the half-maximal inhibitory concentration (IC50) was 0.047 µM in data set [1] (read-out: IC50), “Not Active” in data set [2], 3.02 µM in data set [3] and “Not Active” in data set [5]. In addition, the values for the Ki in data set [1] (read-out: Ki), in data set [3] and in data set [5] were 0.045 µM, 1.73 µM and “Not Active”, respectively.

Turning to `CC(C)Cc1ccc([C@@H](C)C(=O)O)cc1` [(R)-IBUPROPHEN], the IC50 result in data set [1], in data set [2], in data set [3] (cho-k1) and in data set [5] was “Not Active” each time. The Ki entry in data set [1] and in data set [5] was “Not Active” each time.

Take `CN(C)CCOC(c1ccccc1)c1ccccc1` [DIPHENHYDRAMINE]: the IC50 entry in data set [2], in data set [3] (cho-k1) and in data set [4] was “Not Active” each time.

On to `Fc1ccc(C(c2ccc(F)cc2)N2CCN(C/C=C/c3ccccc3)CC2)cc1` [FLUNARIZINE], for which the IC50 result in data set [2] was “Not Active”; in data set [3] (read-out: IC50) it was 4.28 µM; in data set [5], “Not Active”. Also, the Ki was 2.45 µM in data set [3] and “Not Active” in data set [5].

As for `CNCCC(Oc1ccc(C(F)(F)F)cc1)c1ccccc1` (stereo unspecified) [FLUOXETINE], the IC50 result in data set [2], in data set [3] (cho-k1) and in data set [5] was “Not Active” each time. For the same molecule, the Ki result in data set [5] is “Not Active”.

Take `Cc1ccc(NC(=O)c2ccc(CN3CCN(C)CC3)cc2)cc1Nc1nccc(-c2cccnc2)n1` [IMATINIB]: the IC50 result in data set [2], in data set [3] (cho-k1) and in data set [4] was “Not Active” in each case.

Consider `CC(C)Oc1ccc2c(=O)c(-c3ccccc3)coc2c1` [IPRIFLAVONE], for which the IC50 result in data set [1], in data set [2], in data set [3] (cho-k1) and in data set [5] was “Not Active” each time. Also, the Ki result in data set [1] and in data set [5] was “Not Active” each time.

As for `CC(C)NCC(O)c1ccc(O)c(O)c1` (stereo unspecified) [ISOPROTERENOL], the IC50 entry in data set [1], in data set [2], in data set [3] (cho-k1) and in data set [5] was “Not Active” in each case. Besides, the Ki result in data set [1] and in data set [5] was “Not Active” throughout.

Turning to `CNC1(c2ccccc2Cl)CCCCC1=O` (stereo unspecified) [KETAMINE], the IC50 result in data set [1], in data set [2], in data set [3] (cho-k1) and in data set [5] was “Not Active” in each case. The Ki entry in data set [1] and in data set [5] was “Not Active” throughout.

As for `N#Cc1ccc(C(c2ccc(C#N)cc2)n2cncn2)cc1` [LETROZOLE], the IC50 entry in data set [1], in data set [2], in data set [3] (cho-k1), in data set [4] and in data set [5] was “Not Active” throughout. The inhibition constant (Ki) entry in data set [1] and in data set [5] was “Not Active” throughout.

For `CCN(CC)CC(=O)Nc1c(C)cccc1C` [LIDOCAINE], the IC50 entry in data set [1], in data set [2], in data set [3] (cho-k1) and in data set [4] was “Not Active” throughout. In addition, in data set [1], the Ki result was “Not Active”.

Regarding `C[C@H]1C[C@@H]2[C@H]([C@@H](O)C[C@@]3(C)[C@H]2CC[C@]3(O)C(=O)CO)[C@@]2(C)C=CC(=O)C=C12` [METHYLPREDNISOLONE], the concentration for half-maximal inhibition (IC50) result in data set [1], in data set [2], in data set [3] (cho-k1) and in data set [5] was “Not Active” throughout. For the same molecule, the Ki entry in data set [1] and in data set [5] was “Not Active” each time.

Take `Cc1cccc(C)c1OCC(C)N` (stereo unspecified) [MEXILETINE]: the IC50 entry in data set [1], in data set [2], in data set [3] (cho-k1) and in data set [5] was “Not Active” each time. Besides, the Ki entry in data set [1] and in data set [5] was “Not Active” each time.

As to `CO[C@H]1/C=C/O[C@@]2(C)Oc3c(C)c(O)c4c(O)c(c(/C=N/N5CCN(C6CCCC6)CC5)c(O)c4c3C2=O)NC(=O)/C(C)=C\C=C\[C@H](C)[C@H](O)[C@@H](C)[C@@H](O)[C@@H](C)[C@H](OC(C)=O)[C@@H]1C` [RIFAPENTINE], the IC50 result in data set [1], in data set [2] and in data set [3] (cho-k1) was “Not Active” each time. Besides, in data set [1], the Ki result is reported as “Not Active”.

As to `CC[C@@H](C(=O)[C@@H](C)[C@@H](O)[C@H](C)[C@@H]1O[C@@H]([C@@H](CC)C(=O)O)CC[C@@H]1C)[C@H]1O[C@]2(C=C[C@@H](O)[C@]3(CC[C@@](C)([C@H]4CC[C@](O)(CC)[C@H](C)O4)O3)O2)[C@H](C)C[C@@H]1C` [SALINOMYCIN], the IC50 entry in data set [1], in data set [2], in data set [3] (cho-k1) and in data set [5] was “Not Active” each time. Further, the Ki result in data set [1] and in data set [5] was “Not Active” each time.

As to `O=C(Oc1ccccc1C(=O)O)c1ccccc1O` [SALSALATE], the IC50 result in data set [1], in data set [2], in data set [3] (cho-k1) and in data set [5] was “Not Active” each time. The Ki result in data set [1] and in data set [5] was “Not Active” in each case.

As for `O=C(O)c1cn(-c2ccc(F)cc2)c2cc(N3CCNCC3)c(F)cc2c1=O` [SARAFLOXACIN], the IC50 result in data set [1], in data set [2], in data set [3] (cho-k1) and in data set [5] was “Not Active” in each case. Besides, the Ki entry in data set [1] and in data set [5] was “Not Active” each time.

For the molecule `CC(C)NCC(O)c1ccc(NS(C)(=O)=O)cc1` (stereo unspecified) [SOTALOL], the IC50 entry in data set [1], in data set [2], in data set [3] (cho-k1) and in data set [5] was “Not Active” each time. For the same molecule, the inhibition constant Ki entry in data set [1] and in data set [5] was “Not Active” in each case.

Turning to `O.O.O.O.O.O.[Cl-].[Cl-].[Sr+2]` [STRONTIUM CHLORIDE HEXAHYDRATE], the IC50 entry in data set [1], in data set [2], in data set [3] (cho-k1) and in data set [5] was “Not Active” each time. Further, the Ki result in data set [1] and in data set [5] was “Not Active” throughout.

As for `O=C1C(CC[S+]([O-])c2ccccc2)C(=O)N(c2ccccc2)N1c1ccccc1` (stereo unspecified) [SULFINPYRAZONE], the IC50 result in data set [1], in data set [2], in data set [3] (cho-k1) and in data set [5] was “Not Active” in each case. The Ki result in data set [1] and in data set [5] was “Not Active” throughout.

Turning to `COc1cc2nc(N3CCN(C(=O)C4CCCO4)CC3)nc(N)c2cc1OC` (stereo unspecified) [TERAZOSIN], the IC50 result in data set [1], in data set [2] and in data set [3] (cho-k1) was “Not Active” in each case. The Ki result in data set [1] is recorded as “Not Active”.

Consider `CCCCNc1ccc(C(=O)OCCN(C)C)cc1` [TETRACAINE], for which the IC50 result in data set [1], in data set [2] and in data set [3] (cho-k1) was “Not Active” in each case. Further, in data set [1], the Ki entry was “Not Active”.

Turning to `Cn1c(=O)c2nc[nH]c2n(C)c1=O.O` [THEOPHYLLINE], the concentration for half-maximal inhibition (IC50) result in data set [1], in data set [2], in data set [3] (cho-k1) and in data set [5] was “Not Active” throughout. The Ki result in data set [1] and in data set [5] was “Not Active” each time.

Consider `CS(=O)(=O)c1ccc([C@@H](O)[C@@H](CO)NC(=O)C(Cl)Cl)cc1` [THIAMPHENICOL], for which the IC50 entry in data set [1], in data set [2], in data set [3] (cho-k1) and in data set [5] was “Not Active” each time. In addition, the Ki entry in data set [1] and in data set [5] was “Not Active” each time.

`CCN(CC)CCNC(=O)c1cc(S(C)(=O)=O)ccc1OC` [TIAPRIDE]: the IC50 result in data set [1], in data set [2], in data set [3] (cho-k1) and in data set [5] was “Not Active” throughout. For the same molecule, the Ki entry in data set [1] and in data set [5] was “Not Active” in each case.
